A short description of series [1]: Antioxidant activity assessed as peroxynitrite scavenging activity by measuring rhodamine 123 fluorescence intensity at 50 uM in presence of SIN-1. It is filed as functional.
The subject of the next series is Danio rerio. Kind of series: Depigmentation activity in zebrafish embryos administered at 21 hpf and measured after 69 hpf. It is filed as functional, organism-based. Particulars: dose 0.01-0.4 mM, time […].
A short description of series [2]: Antioxidant activity assessed as reduction in H2O2 induced hydroxyl radical production at 40 uM. It is filed as functional.
Series [3] is described as follows: Antioxidant activity assessed as reduction in FeSO4 induced hydroxyl radical production at 40 uM. It counts as functional.
Series [4] addresses T1, Tyrosinase (Mus musculus) (UniProt P11344).
T1 sequence (whole entry): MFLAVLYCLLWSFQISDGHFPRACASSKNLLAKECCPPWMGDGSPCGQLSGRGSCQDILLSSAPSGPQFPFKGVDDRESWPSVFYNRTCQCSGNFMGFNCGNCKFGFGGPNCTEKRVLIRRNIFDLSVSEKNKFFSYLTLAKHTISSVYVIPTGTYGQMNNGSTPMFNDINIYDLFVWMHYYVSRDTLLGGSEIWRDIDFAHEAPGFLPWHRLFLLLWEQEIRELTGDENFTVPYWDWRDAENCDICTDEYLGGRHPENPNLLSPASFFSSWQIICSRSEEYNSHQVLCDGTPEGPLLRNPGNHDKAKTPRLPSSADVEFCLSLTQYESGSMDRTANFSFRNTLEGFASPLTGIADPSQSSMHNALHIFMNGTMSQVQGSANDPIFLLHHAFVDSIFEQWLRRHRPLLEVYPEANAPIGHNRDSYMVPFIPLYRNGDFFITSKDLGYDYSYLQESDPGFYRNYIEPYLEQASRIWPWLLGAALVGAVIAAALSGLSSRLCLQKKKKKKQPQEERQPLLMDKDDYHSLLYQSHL
Kind of series: Inhibition of tyrosinase activity in mouse B16-F10 cells preincubated for 1 hr followed by alpha-MSH and IBMX addition and measured after 72 hrs. Particulars: time 73.0 hrs. It counts as cell-based.

In series [5] the test system is B16-F10. Briefly: Inhibition of melanin production in mouse B16-F10 cells preincubated for 1 hr followed by alpha-MSH and IBMX addition and measured after 72 hrs. The following applies: dose 5-20 µM, time 73.0 hrs. It counts as functional, cell-based.
The target of series [6] is T2, Mushroom tyrosinase (Agaricus bisporus, UniProt O42713+Q00024+C7FF04+C7FF05). Briefly: Inhibition of mushroom tyrosinase monophenolase activity using L-tyrosine as substrate incubated for 0.5 hrs. It counts as protein assay.
Series [7] concerns the target T2, Mushroom tyrosinase. Kind of series: Inhibition of mushroom tyrosinase diphenolase activity using L-dopa as substrate incubated for 0.5 hrs. It is filed as protein assay.
For the next series, the system named is HaCaT. Kind of series: Cytotoxicity against human HaCaT cells at <= 20 uM after 24 hrs by EZ-Cytox solution based microplate reader assay. It is filed as toxicity, cell-based.
For series [8], the system named is B16-F10. Kind of series: Cytotoxicity against mouse B16-F10 cells at <= 20 uM after 72 hrs by EZ-Cytox solution based microplate reader assay. It is filed as toxicity, cell-based. The following applies: b16-f10, 72 h.

The source made the active and inactive calls. The calls are words filed in the database; no cut-off is given here.

The IC50 is the concentration that gives 50% inhibition. Read a high IC50 as lower potency.

On to `CC(C)(S)[C@@H](N)C(=O)O`, for which the result in series [1] was Active.

As for `COc1ccc2[nH]c(S)nc2c1`, the Activity entry in the series on Danio rerio is “Dose-Dependent Effect”. Besides, the outcome in series [2] and in [3] was inactive.

With `Cc1ccc2[nH]c(=S)[nH]c2c1`, in the series with Danio rerio, the Activity entry is “Dose-Dependent Effect”. Further, the outcome in [2] and in [3] was inactive. Further, the inhibition entry (in series [4]; in the series with B16-F10 [5]) was “Dose-Dependent Effect” each time.

As to `Cc1cccc2[nH]c(=S)[nH]c12`, the Activity entry in the series on Danio rerio is “Dose-Dependent Effect”. Further, the IC50 against Mushroom tyrosinase [6] came out at 5780 nM; against Mushroom tyrosinase [7] it was 740 nM. Also, the result in series [2] and in series [3] was inactive.

Turning to `O=C(c1ccccc1)c1ccc2[nH]c(S)nc2c1`, the result in [1] was Active. In the series on Danio rerio, the Activity entry is “Dose-Dependent Effect”. For the same compound, the IC50 is reported as 100 nM against Mushroom tyrosinase [6] and 20 nM on Mushroom tyrosinase [7]. Besides, the outcome in series [2] and in [3] was inactive. Further, the inhibition result (in series [4]; in the series with B16-F10 [5]) was “Dose-Dependent Effect” throughout.

`Cc1ccc2[nH]c(S)nc2c1`: the Activity result with HaCaT and in the series with B16-F10 [8] was “Non-Toxic” throughout.

Take `O=[N+]([O-])c1ccc2[nH]c(S)nc2c1`: in the series with Danio rerio, the Activity result is “Dose-Dependent Effect”. In addition, the result in series [2] and in [3] was inactive.

For `Sc1nc2ccccc2[nH]1`, the Activity entry in the series with Danio rerio is “Dose-Dependent Effect”. Moreover, the outcome in series [2] and in series [3] was inactive.

Consider `N#Cc1ccc2[nH]c(S)nc2c1`, for which, in [1], the result was Active. Moreover, the Activity result in the series on Danio rerio is “Dose-Dependent Effect”. The IC50 is on record as 110 nM against Mushroom tyrosinase [6] and 40 nM against Mushroom tyrosinase [7]. The result in series [2] and in [3] was inactive.

For the compound `Sc1nc2cc(Cl)ccc2[nH]1`, the result in series [1] was Active. Also, the results for the Activity result in the series on Danio rerio, with HaCaT and in the series with B16-F10 [8] were “Dose-Dependent Effect”, “Non-Toxic” and “Non-Toxic”, respectively. Further, the result in [2] and in series [3] was inactive. The inhibition entry (in series [4]; with B16-F10 [5]) was “Dose-Dependent Effect” each time.

For `Cc1cc2nc(S)[nH]c2cc1C`, the Activity entry in the series on Danio rerio was “Dose-Dependent Effect”; in the series with HaCaT, “Non-Toxic”; in the series with B16-F10 [8], “Non-Toxic”. Moreover, the outcome in [2] and in [3] was inactive. Moreover, the inhibition entry (in [4]; in the series with B16-F10 [5]) was “Dose-Dependent Effect” throughout.

With `O=C(c1ccccc1)c1ccc2[nH]c(=S)[nH]c2c1`, the Activity entry with HaCaT and in the series on B16-F10 [8] was “Non-Toxic” each time.

As for `Fc1ccc2[nH]c(S)nc2c1`, the Activity entry in the series on Danio rerio was “Dose-Dependent Effect”. The result in series [2] and in [3] was inactive.

Turning to `Cc1c(C)c2c(c(C)c1O)CCC(C)(C(=O)O)O2` (centres undefined), the result in series [1], in series [2] and in [3] was Active.

The values are drawn from ChEMBL document CHEMBL5543082, “In vitro and in vivo anti-pigmentation effects of 2-mercaptobenzimidazoles as nanomolar tyrosinase inhibitors on mammalian cells and zebrafish embryos: Preparation of pigment-free zebrafish embryos” (Eur J Med Chem, 2024).
